# Measured values: ChEMBL document CHEMBL1201861, “Genomics of Drug Sensitity in Cancer screening data, Wellcome Trust Sanger Institute”
# Tests used:
# Experiment in all cases: cells
# Ramos-2G6-4C10 = format: functional, cell-based, Homo sapiens; settings: Homo sapiens, Ramos-2G6-4C10;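 further: growth inhibition of the cell line, measured by a cell viability read-out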
# Description: SANGER: Inhibition of human Ramos-2G6-4C10 cell growth in a cell viability assay.
# MZ7-mel = format: functional, cell-based, Homo sapiens; settings: Homo sapiens, MZ7-mel;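 further: growth inhibition of human MZ7-mel cells, measured by a cell viability assay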
# Description: SANGER: Inhibition of human MZ7-mel cell growth in a cell viability assay.
# KE-37 = format: functional, cell-based, Homo sapiens; settings: Homo sapiens, KE-37;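 further: growth inhibition of KE-37 cells, read out with a cell viability assay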
# Description: SANGER: Inhibition of human KE-37 cell growth in a cell viability assay.
# NOS-1 = format: functional, cell-based, Homo sapiens; settings: Homo sapiens, NOS-1;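 further: growth inhibition of the human NOS-1 cell line, read out with a cell viability assay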
# Description: SANGER: Inhibition of human NOS-1 cell growth in a cell viability assay.
# HCC2157 = format: functional, cell-based, Homo sapiens; settings: Homo sapiens, HCC2157;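 further: growth inhibition of the cancer cell line, read out as cell viability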
# Description: SANGER: Inhibition of human HCC2157 cell growth in a cell viability assay.
# SF-539 = format: functional, cell-based, Homo sapiens; settings: Homo sapiens, SF-539;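 further: Read-out is a cell viability assay, with IC50 reflecting inhibition of cell growth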
# Description: SANGER: Inhibition of human SF539 cell growth in a cell viability assay.
# TE-11 = format: functional, cell-based; settings: Homo sapiens;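 further: growth inhibition of human TE-11 cells, read out by a cell viability assay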
# Description: SANGER: Inhibition of human TE-11 cell growth in a cell viability assay.
# NH-12 = format: functional, cell-based, Homo sapiens; settings: Homo sapiens, NH-12;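 further: growth inhibition of NH-12 cells, read out with a cell viability assay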
# Description: SANGER: Inhibition of human NH-12 cell growth in a cell viability assay.
# NOMO-1 = format: functional, cell-based, Homo sapiens; settings: Homo sapiens, NOMO-1;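 further: growth inhibition of human NOMO-1 cells measured by a cell viability assay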
# Description: SANGER: Inhibition of human NOMO-1 cell growth in a cell viability assay.
# JVM-3 = format: functional, cell-based, Homo sapiens; settings: Homo sapiens, JVM-3;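 further: growth inhibition of human JVM-3 cells, read out with a cell viability assay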
# Description: SANGER: Inhibition of human JVM-3 cell growth in a cell viability assay.
# ML-2 = format: functional, cell-based, Homo sapiens; settings: Homo sapiens, ML-2;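 further: growth inhibition of ML-2 cells, measured with a cell viability readout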
# Description: SANGER: Inhibition of human ML-2 cell growth in a cell viability assay.
# MEG-01 = format: functional, cell-based, Homo sapiens; settings: Homo sapiens, MEG-01;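 further: growth inhibition of MEG-01 cells, read out by a cell viability assay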
# Description: SANGER: Inhibition of human MEG-01 cell growth in a cell viability assay.
# BV-173 = format: functional, cell-based, Homo sapiens; settings: Homo sapiens, BV-173
# Description: SANGER: Inhibition of human BV-173 cell growth in a cell viability assay.
# QIMR-WIL = format: functional, cell-based, Homo sapiens; settings: Homo sapiens, QIMR-WIL;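 further: growth inhibition of QIMR-WIL cells, read out with a cell viability assay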
# Description: SANGER: Inhibition of human QIMR-WIL cell growth in a cell viability assay.
# OS-RC-2 = format: functional, cell-based, Homo sapiens; settings: Homo sapiens, OS-RC-2;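 further: growth inhibition of human OS-RC-2 cells, measured by a cell viability assay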
# Description: SANGER: Inhibition of human OS-RC-2 cell growth in a cell viability assay.
# NCI-H1650 = format: functional, cell-based, Homo sapiens; settings: Homo sapiens, NCI-H1650;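 further: growth inhibition of human NCI-H1650 cells measured by a cell viability assay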
# Description: SANGER: Inhibition of human NCI-H1650 cell growth in a cell viability assay.
# KGN = format: functional, cell-based, Homo sapiens; settings: Homo sapiens, KGN;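 further: growth inhibition of KGN cells, read out with a cell viability assay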
# Description: SANGER: Inhibition of human KGN cell growth in a cell viability assay.
# TE-12 = format: functional, cell-based, Homo sapiens; settings: Homo sapiens, TE-12;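 further: growth inhibition of TE-12 cells, read out by a cell viability assay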
# Description: SANGER: Inhibition of human TE-12 cell growth in a cell viability assay.
# KLE = format: functional, cell-based; settings: Homo sapiens;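 further: growth inhibition of human KLE cells, read out with a cell viability assay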
# Description: SANGER: Inhibition of human KLE cell growth in a cell viability assay.
# GB-1 = format: functional, cell-based, Homo sapiens; settings: Homo sapiens, GB-1;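 further: growth of GB-1 cells judged by a viability assay, IC50 marks the concentration inhibiting growth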
# Description: SANGER: Inhibition of human GB-1 cell growth in a cell viability assay.
# ES5 = format: functional, cell-based, Homo sapiens; settings: Homo sapiens, ES5;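 further: growth inhibition of human ES5 cells, read out by a cell viability assay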
# Description: SANGER: Inhibition of human ES5 cell growth in a cell viability assay.
# DSH1 = format: functional, cell-based; settings: Homo sapiens;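 further: growth inhibition of human DSH1 cells, measured with a cell viability readout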
# Description: SANGER: Inhibition of human DSH1 cell growth in a cell viability assay.
# NTERA-2-cl-D1 = format: functional, cell-based, Homo sapiens; settings: Homo sapiens, NTERA-2-cl-D1;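 further: inhibition of cell growth, measured with a cell viability assay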
# Description: SANGER: Inhibition of human NTERA-S-cl-D1 cell growth in a cell viability assay.
# LU-134-A = format: functional, cell-based, Homo sapiens; settings: Homo sapiens, LU-134-A
# Description: SANGER: Inhibition of human LU-134-A cell growth in a cell viability assay.
# KU812 cell line = format: functional, cell-based, Homo sapiens; settings: Homo sapiens, KU812;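 further: growth inhibition of KU812 cells, read out with a cell viability assay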
# Description: SANGER: Inhibition of human KU812 cell growth in a cell viability assay.
# KARPAS-299 = format: functional, cell-based, Homo sapiens; settings: Homo sapiens, KARPAS-299
# Description: SANGER: Inhibition of human KARPAS-299 cell growth in a cell viability assay.
# JVM-2 = format: functional, cell-based, Homo sapiens; settings: Homo sapiens, JVM-2;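 further: growth inhibition of JVM-2 cells determined by a cell viability assay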
# Description: SANGER: Inhibition of human JVM-2 cell growth in a cell viability assay.
# LS-513 = format: functional, cell-based, Homo sapiens; settings: Homo sapiens, LS-513
# Description: SANGER: Inhibition of human LS-513 cell growth in a cell viability assay.
# KG-1 = format: functional, cell-based, Homo sapiens; settings: Homo sapiens, KG-1;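 further: growth inhibition of KG-1 cells, read out by a cell viability assay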
# Description: SANGER: Inhibition of human KG-1 cell growth in a cell viability assay.
# D-263MG = format: functional, cell-based, Homo sapiens; settings: Homo sapiens, D-263MG
# Description: SANGER: Inhibition of human D-263MG cell growth in a cell viability assay.
# MHH-NB-11 = format: functional, cell-based, Homo sapiens; settings: Homo sapiens, MHH-NB-11;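 further: growth inhibition of human MHH-NB-11 cells, read out by a cell viability assay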
# Description: SANGER: Inhibition of human MHH-NB-11 cell growth in a cell viability assay.
# SNU1 = format: functional, cell-based, Homo sapiens; settings: Homo sapiens, SNU1;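 further: growth inhibition of human NCI-SNU-1 cells, measured with a cell viability assay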
# Description: SANGER: Inhibition of human NCI-SNU-1 cell growth in a cell viability assay.
# TE-9 = format: functional, cell-based, Homo sapiens; settings: Homo sapiens, TE-9;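 further: cell growth inhibition, measured with a cell viability readout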
# Description: SANGER: Inhibition of human TE-9 cell growth in a cell viability assay.
# EW-13 = format: functional, cell-based, Homo sapiens; settings: Homo sapiens, EW-13; read-out: IC50;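 further: growth inhibition of EW-13 cells, read out with a cell viability assay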
# Description: SANGER: Inhibition of human EW-13 cell growth in a cell viability assay.
# SW872 = format: functional, cell-based, Homo sapiens; settings: Homo sapiens, SW872;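 further: growth inhibition of SW872 cells, read out by a viability assay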
# Description: SANGER: Inhibition of human SW872 cell growth in a cell viability assay.
# KINGS-1 = format: functional, cell-based, Homo sapiens; settings: Homo sapiens, KINGS-1;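 further: cell viability assay measuring suppression of KINGS-1 cell growth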
# Description: SANGER: Inhibition of human KINGS-1 cell growth in a cell viability assay.
# CCRF-CEM = format: functional, cell-based, Homo sapiens; settings: Homo sapiens, CCRF-CEM;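 further: inhibition of CCRF-CEM cell growth, measured by a cell viability assay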
# Description: SANGER: Inhibition of human CCRF-CEM cell growth in a cell viability assay.
# NCI-H747 = format: functional, cell-based, Homo sapiens; settings: Homo sapiens, NCI-H747;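 further: growth inhibition of human NCI-H747 cells, read out by a cell viability assay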
# Description: SANGER: Inhibition of human NCI-H747 cell growth in a cell viability assay.
# HH = format: functional, cell-based, Homo sapiens; settings: Homo sapiens, HH
# Description: SANGER: Inhibition of human HH cell growth in a cell viability assay.
# PSN1 = format: functional, cell-based, Homo sapiens; settings: Homo sapiens, PSN1;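 further: suppression of growth of human PSN1 cells, read out by a cell viability assay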
# Description: SANGER: Inhibition of human PSN1 cell growth in a cell viability assay.
# ES7 = format: functional, cell-based, Homo sapiens; settings: Homo sapiens, ES7;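 further: growth inhibition of cultured human ES7 cells, read out as cell viability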
# Description: SANGER: Inhibition of human ES7 cell growth in a cell viability assay.
# LOX IMVI = format: functional, cell-based, Homo sapiens; settings: Homo sapiens, LOX IMVI
# Description: SANGER: Inhibition of human LOXIMVI cell growth in a cell viability assay.
# NCI-H226 = format: functional, cell-based, Homo sapiens; settings: Homo sapiens, NCI-H226;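 further: cell viability read-out used to gauge growth inhibition of the cells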
# Description: SANGER: Inhibition of human NCI-H226 cell growth in a cell viability assay.
# COLO-320-HSR = format: functional, cell-based, Homo sapiens; settings: Homo sapiens, COLO-320-HSR;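 further: growth inhibition of COLO-320-HSR cells, determined with a cell viability assay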
# Description: SANGER: Inhibition of human COLO-320-HSR cell growth in a cell viability assay.
# ES6 = format: functional, cell-based; settings: Homo sapiens;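 further: growth inhibition of human ES6 cells, read out with a cell viability assay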
# Description: SANGER: Inhibition of human ES6 cell growth in a cell viability assay.
# Mo = format: functional, cell-based, Homo sapiens; settings: Homo sapiens, Mo
# Description: SANGER: Inhibition of human Mo-T cell growth in a cell viability assay.
# ES8 = format: functional, cell-based, Homo sapiens; settings: Homo sapiens, ES8;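 further: growth inhibition of human ES8 cells, read out with a cell viability assay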
# Description: SANGER: Inhibition of human ES8 cell growth in a cell viability assay.
# HL-60 = format: functional, cell-based, Homo sapiens; settings: Homo sapiens, HL-60;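 further: growth inhibition of human HL-60 cells, read out with a cell viability assay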
# Description: SANGER: Inhibition of human HL-60 cell growth in a cell viability assay.
# LB996-RCC = format: functional, cell-based, Homo sapiens; settings: Homo sapiens, LB996-RCC
# Description: SANGER: Inhibition of human LB996-RCC cell growth in a cell viability assay.
# 8-MG-BA = format: functional, cell-based, Homo sapiens; settings: Homo sapiens, 8-MG-BA;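 further: growth inhibition of 8-MG-BA cells, read out with a cell viability assay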
# Description: SANGER: Inhibition of human 8-MG-BA cell growth in a cell viability assay.
smiles,measurement,setting,value
Cc1ccc(-n2nc(C(C)(C)C)cc2NC(=O)Nc2ccc(OCCN3CCOCC3)c3ccccc23)cc1 [DORAMAPIMOD],IC50,Ramos-2G6-4C10,> 10 µM
same,IC50,MZ7-mel,> 10 µM
same,IC50,KE-37,> 10 µM
same,IC50,NOS-1,> 10 µM
same,IC50,HCC2157,> 10 µM
same,IC50,SF-539,> 10 µM
same,IC50,TE-11,> 10 µM
same,IC50,NH-12,> 10 µM
same,IC50,NOMO-1,> 10 µM
same,IC50,JVM-3,> 10 µM
same,IC50,ML-2,> 10 µM
same,IC50,MEG-01,> 10 µM
same,IC50,BV-173,> 10 µM
same,IC50,QIMR-WIL,> 10 µM
same,IC50,OS-RC-2,> 10 µM
same,IC50,NCI-H1650,> 10 µM
same,IC50,KGN,> 10 µM
same,IC50,TE-12,> 10 µM
same,IC50,KLE,> 10 µM
same,IC50,GB-1,> 10 µM
same,IC50,ES5,> 10 µM
same,IC50,DSH1,> 10 µM
same,IC50,NTERA-2-cl-D1,> 10 µM
same,IC50,LU-134-A,> 10 µM
same,IC50,KU812 cell line,> 10 µM
same,IC50,KARPAS-299,> 10 µM
same,IC50,JVM-2,> 10 µM
same,IC50,LS-513,> 10 µM
same,IC50,KG-1,> 10 µM
same,IC50,D-263MG,> 10 µM
same,IC50,MHH-NB-11,> 10 µM
same,IC50,SNU1,9.07 µM
same,IC50,TE-9,> 10 µM
same,IC50,EW-13,> 10 µM
same,IC50,SW872,> 10 µM
same,IC50,KINGS-1,> 10 µM
same,IC50,CCRF-CEM,> 10 µM
same,IC50,NCI-H747,> 10 µM
same,IC50,HH,> 10 µM
same,IC50,PSN1,> 10 µM
same,IC50,ES7,> 10 µM
same,IC50,LOX IMVI,> 10 µM
same,IC50,NCI-H226,> 10 µM
same,IC50,COLO-320-HSR,> 10 µM
same,IC50,ES6,> 10 µM
same,IC50,Mo,> 10 µM
same,IC50,ES8,> 10 µM
same,IC50,HL-60,> 10 µM
same,IC50,LB996-RCC,> 10 µM
same,IC50,8-MG-BA,> 10 µM
COC(=O)[C@H](CCSC)NC(=O)c1ccc(NC[C@@H](N)CS)cc1-c1ccccc1,IC50,Ramos-2G6-4C10,> 1.02 µM
same,IC50,MZ7-mel,> 1.02 µM
same,IC50,KE-37,> 1.02 µM
same,IC50,NOS-1,> 1.02 µM
same,IC50,HCC2157,> 1.02 µM
same,IC50,SF-539,> 1.02 µM
same,IC50,TE-11,> 1.02 µM
same,IC50,NH-12,> 1.02 µM
same,IC50,NOMO-1,> 1.02 µM
same,IC50,JVM-3,> 1.02 µM
same,IC50,ML-2,> 1.02 µM
same,IC50,MEG-01,> 1.02 µM
same,IC50,BV-173,> 1.02 µM
same,IC50,QIMR-WIL,> 1.02 µM
same,IC50,OS-RC-2,> 1.02 µM
same,IC50,NCI-H1650,> 1.02 µM
same,IC50,KGN,> 1.02 µM
same,IC50,TE-12,> 1.02 µM
same,IC50,KLE,> 1.02 µM
same,IC50,GB-1,> 1.02 µM
same,IC50,ES5,> 1.02 µM
same,IC50,DSH1,> 1.02 µM
same,IC50,NTERA-2-cl-D1,> 1.02 µM
same,IC50,LU-134-A,> 1.02 µM
same,IC50,KU812 cell line,> 1.02 µM
same,IC50,KARPAS-299,> 1.02 µM
same,IC50,JVM-2,> 1.02 µM
same,IC50,LS-513,> 1.02 µM
same,IC50,KG-1,> 1.02 µM
same,IC50,D-263MG,> 1.02 µM
same,IC50,MHH-NB-11,> 1.02 µM
same,IC50,SNU1,> 1.02 µM
same,IC50,TE-9,> 1.02 µM
same,IC50,EW-13,> 1.02 µM
same,IC50,SW872,> 1.02 µM
same,IC50,KINGS-1,> 1.02 µM
same,IC50,CCRF-CEM,> 1.02 µM
same,IC50,NCI-H747,> 1.02 µM
same,IC50,HH,> 1.02 µM
same,IC50,PSN1,> 1.02 µM
same,IC50,ES7,> 1.02 µM
same,IC50,LOX IMVI,> 1.02 µM
same,IC50,NCI-H226,> 1.02 µM
same,IC50,COLO-320-HSR,> 1.02 µM
same,IC50,ES6,> 1.02 µM
same,IC50,Mo,> 1.02 µM
same,IC50,ES8,> 1.02 µM
same,IC50,HL-60,> 1.02 µM
same,IC50,LB996-RCC,> 1.02 µM
same,IC50,8-MG-BA,> 1.02 µM
